Experimental findings from US20240199546A1, “INHIBITORS OF SOLUTE CARRIER FAMILY 6A MEMBER 19 (SLC6A19) AND METHODS OF USE THEREOF” (Maze Therapeutics, Inc., priority 2022, published 2024) are described below.

Where a name gives a salt, the structure may show the parent alone.

The target of test [1] is T1, human SLC6A19 and TMEM27 (Homo sapiens, UniProt Q695T7).
T1 construct: expressed in transfected cells
T1 sequence (Q695T7 1-634): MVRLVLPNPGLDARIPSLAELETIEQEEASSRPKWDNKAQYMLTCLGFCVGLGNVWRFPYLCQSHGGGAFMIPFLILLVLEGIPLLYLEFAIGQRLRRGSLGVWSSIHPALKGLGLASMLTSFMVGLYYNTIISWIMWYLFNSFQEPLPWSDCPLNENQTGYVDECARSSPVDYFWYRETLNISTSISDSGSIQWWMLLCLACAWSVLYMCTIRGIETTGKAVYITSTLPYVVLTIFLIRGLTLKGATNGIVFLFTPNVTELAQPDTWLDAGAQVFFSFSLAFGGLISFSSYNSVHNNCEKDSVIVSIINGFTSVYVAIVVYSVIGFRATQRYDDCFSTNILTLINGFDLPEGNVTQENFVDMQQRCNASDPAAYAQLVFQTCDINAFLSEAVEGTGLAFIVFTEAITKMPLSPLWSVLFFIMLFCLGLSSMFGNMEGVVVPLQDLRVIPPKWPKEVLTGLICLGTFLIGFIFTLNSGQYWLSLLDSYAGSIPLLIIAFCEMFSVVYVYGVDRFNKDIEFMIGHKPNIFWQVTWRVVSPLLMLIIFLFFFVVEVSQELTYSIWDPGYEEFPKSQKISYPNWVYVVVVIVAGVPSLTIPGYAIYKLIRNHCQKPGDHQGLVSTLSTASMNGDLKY
T1 sequence (Q9HBJ8 15-222 partner): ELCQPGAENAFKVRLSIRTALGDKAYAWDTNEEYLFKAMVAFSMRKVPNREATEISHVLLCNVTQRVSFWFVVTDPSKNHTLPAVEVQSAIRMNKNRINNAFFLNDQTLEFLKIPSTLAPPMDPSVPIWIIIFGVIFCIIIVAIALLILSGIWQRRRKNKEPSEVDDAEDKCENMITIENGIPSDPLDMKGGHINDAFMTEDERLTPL
The test is described as follows: Radiolabelled (3H) leucine uptake in CHO cells with doxycycline-inducible expression of human SLC6A19 and TMEM27 (Example B-1). It is filed as cell-based. The note with it: CHO cells with doxycycline-inducible expression of human SLC6A19 and TMEM27, read-out: SLC6A19_Radioligand Uptake Assay IC50. The gist of the method: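 CHO cells were induced with doxycycline for 18 h at 37 °C, washed in HBSS, then exposed to compounds for 1 h: 8-point, 3-fold dilutions in duplicate, 0.5% DMSO final. Uptake measured by scintillation counting after 2 h shaking. Activity normalized with positive control as 0% and DMSO as 100%.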

Test [2] deals with T1, human SLC6A19 and TMEM27. Nature of the test: 13C6,15N-isoleucine uptake in CHO cells with doxycycline-inducible expression of human SLC6A19 and TMEM27, RapidFire mass spectrometry (Example B-2). The class given is cell-based. The note with it: read-out: SLC6A19_RapidFire Uptake Assay IC50. The gist of the method:
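Read-out is RapidFire mass-spec peak area of 13C6,15N-isoleucine taken up over 20 min at 37 °C, after 20 min compound pre-exposure in pH 7.2 HEPES-buffered saline. Cells: doxycycline-induced CHO co-expressing human SLC6A19 and TMEM27; compounds as duplicate 10-point 2-fold dilutions, positive control setting 0% activity.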

As to `CC1(C(=O)NCc2cc3cc(Cl)c(OCc4ncc(Cl)s4)cc3[nH]2)CC1` [Compound 323, N-((5-chloro-6-((5-chlorothiazol-2-yl)methoxy)-1H-indol-2-yl)methyl)-1-methylcyclopropane-1-carboxamide], the half-maximal inhibitory concentration (IC50) on human SLC6A19 and TMEM27 [1] is 1810 nM; at human SLC6A19 and TMEM27 [2], 531 nM.
With `O=C(NCc1cc2cc(Cl)c(OCc3cccc(F)n3)cc2[nH]1)N1CCC1` [Compound 402, N-((5-chloro-6-((6-fluoropyridin-2-yl)methoxy)-1H-indol-2-yl)methyl)azetidine-1-carboxamide], the half-inhibitory concentration (IC50) was determined as 290 nM on human SLC6A19 and TMEM27 [1]; 175 nM on human SLC6A19 and TMEM27 [2].
For the compound `CC1(C(=O)NCc2cc3ccc(CCc4cscn4)cc3[nH]2)CC1` [Compound 76, 1-methyl-N-((6-(2-(thiazol-4-yl)ethyl)-1H-indol-2-yl)methyl)cyclopropane-1-carboxamide], the IC50 at human SLC6A19 and TMEM27 [1] was 100 nM; at human SLC6A19 and TMEM27 [2] it was 34 nM.
As to `CC1(C(=O)NCc2cc3ccc(OCc4cccnc4F)cc3[nH]2)CC1` [Compound 98, N-((6-((2-fluoropyridin-3-yl)methoxy)-1H-indol-2-yl)methyl)-1-methylcyclopropane-1-carboxamide formate], the IC50 amounted to 210 nM on human SLC6A19 and TMEM27 [1]; 274 nM at human SLC6A19 and TMEM27 [2].
For `CC1(C(=O)NCc2cc3cc(C(F)F)c(OCc4cscn4)cc3[nH]2)CC1` [Compound 645, N-((5-(difluoromethyl)-6-(thiazol-4-ylmethoxy)-1H-indol-2-yl)methyl)-1-methylcyclopropane-1-carboxamide], in that order: 955 nM and 524 nM.
For the compound `Cc1cc(COc2cc3[nH]c(CNC(=O)N4CCC4)cc3cc2F)on1` [Compound 481, N-((5-fluoro-6-((3-methylisoxazol-5-yl)methoxy)-1H-indol-2-yl)methyl)azetidine-1-carboxamide], the concentration for half-maximal inhibition (IC50) worked out at 318 nM on human SLC6A19 and TMEM27 [1]; 297 nM at human SLC6A19 and TMEM27 [2].
In the case of `CC(=O)NCc1cc2cc(Cl)c(OCc3ccno3)cc2[nH]1` [Compound 219, N-((5-chloro-6-(isoxazol-5-ylmethoxy)-1H-indol-2-yl)methyl)acetamide], the IC50 is 134 nM at human SLC6A19 and TMEM27 [1]; 103 nM on human SLC6A19 and TMEM27 [2].
For `CC1(C(=O)NCc2cc3cc(Cl)c(OCc4cc(C(F)(F)F)on4)cc3[nH]2)CC1` [Compound 352, N-((5-chloro-6-((5-(trifluoromethyl)isoxazol-3-yl)methoxy)-1H-indol-2-yl)methyl)-1-methylcyclopropane-1-carboxamide], the IC50 amounted to 67.5 nM at human SLC6A19 and TMEM27 [1]; 469 nM on human SLC6A19 and TMEM27 [2].
For `CC1(C(=O)NCc2cc3cc(Cl)c(OCc4cc(C(F)F)on4)cc3[nH]2)CC1` [Compound 96, N-((5-chloro-6-((5-(difluoromethyl)isoxazol-3-yl)methoxy)-1H-indol-2-yl)methyl)-1-methylcyclopropane-1-carboxamide], in that order: 261 nM and 354 nM.
Consider `CC(C)C(=O)NCc1cc2cc(F)c(OCc3cocn3)cc2[nH]1` [Compound 501, N-((5-fluoro-6-(oxazol-4-ylmethoxy)-1H-indol-2-yl)methyl)isobutyramide], for which the 50% inhibitory concentration (IC50) stood at 312 nM on human SLC6A19 and TMEM27 [1]; 1300 nM on human SLC6A19 and TMEM27 [2].
As for `CC1(C(=O)NCc2cc3cc(Cl)c(OCCc4cscn4)cc3[nH]2)CC1` [Compound 67, N-((5-chloro-6-(2-(thiazol-4-yl)ethoxy)-1H-indol-2-yl)methyl)-1-methylcyclopropane-1-carboxamide], the IC50 at human SLC6A19 and TMEM27 [1] is 169 nM; at human SLC6A19 and TMEM27 [2], 117 nM.
As to `CC1(C(=O)NCc2cc3cc(Cl)c(OCc4c(F)ccnc4Cl)cc3[nH]2)CC1` [Compound 351, N-((5-chloro-6-((2-chloro-4-fluoropyridin-3-yl)methoxy)-1H-indol-2-yl)methyl)-1-methylcyclopropane-1-carboxamide], the IC50 at human SLC6A19 and TMEM27 [1] stood at 2470 nM; on human SLC6A19 and TMEM27 [2], 1540 nM.
Turning to `Cn1ncc(COc2cc3[nH]c(CNC(=O)C4CC4)cc3cc2F)n1` [Compound 433, N-((5-fluoro-6-((2-methyl-2H-1,2,3-triazol-4-yl)methoxy)-1H-indol-2-yl)methyl)cyclopropanecarboxamide], the half-inhibitory concentration (IC50) on human SLC6A19 and TMEM27 [1] came out at 566 nM; at human SLC6A19 and TMEM27 [2], 1500 nM.
In the case of `CC1CCCN1C(=O)NCc1cc2ccc(OCc3ccon3)cc2[nH]1` (stereo not drawn) [Compound 124, N-((6-(isoxazol-3-ylmethoxy)-1H-indol-2-yl)methyl)-2-methylpyrrolidine-1-carboxamide], the IC50 at human SLC6A19 and TMEM27 [1] was determined as 450 nM; on human SLC6A19 and TMEM27 [2] it was 1320 nM.
For `CC(=O)NCc1cc2cc(F)c(OCc3cccc(F)n3)cc2[nH]1` [Compound 226, N-((5-fluoro-6-((6-fluoropyridin-2-yl)methoxy)-1H-indol-2-yl)methyl)acetamide], the 50% inhibitory concentration (IC50) at human SLC6A19 and TMEM27 [1] came to 1120 nM; at human SLC6A19 and TMEM27 [2], 960 nM.
For `CC(=O)NCc1cc2cc(C)c(OCc3ccon3)cc2[nH]1` [Compound 235, N-((6-(isoxazol-3-ylmethoxy)-5-methyl-1H-indol-2-yl)methyl)acetamide], in that order: 283 nM and 521 nM.
For `Cc1cc2c(Cl)c(CNC(=O)N3CCC3)[nH]c2cc1OCc1cscn1` [Compound 475, N-((3-chloro-5-methyl-6-(thiazol-4-ylmethoxy)-1H-indol-2-yl)methyl)azetidine-1-carboxamide], in that order: 432 nM and 138 nM.
As for `CC1(C(=O)NCc2cc3cc(C(F)(F)F)c(OCc4ccon4)cc3[nH]2)CC1` [Compound 59, N-((6-(isoxazol-3-ylmethoxy)-5-(trifluoromethyl)-1H-indol-2-yl)methyl)-1-methylcyclopropane-1-carboxamide], the half-inhibitory concentration (IC50) at human SLC6A19 and TMEM27 [1] is 214 nM; on human SLC6A19 and TMEM27 [2], 153 nM.
For `Cn1ncc(COc2cc3[nH]c(CNC(=O)C4(C)CC4)cc3cc2Cl)n1` [Compound 172, N-((5-chloro-6-((2-methyl-2H-1,2,3-triazol-4-yl)methoxy)-1H-indol-2-yl)methyl)-1-methylcyclopropane-1-carboxamide], the half-maximal inhibitory concentration (IC50) on human SLC6A19 and TMEM27 [1] amounted to 157 nM; on human SLC6A19 and TMEM27 [2], 41 nM.
The corresponding values for `O=C(NCc1cc2ccc(OCc3ccon3)cc2[nH]1)N1CCC1` [Compound 122, N-((6-(isoxazol-3-ylmethoxy)-1H-indol-2-yl)methyl)azetidine-1-carboxamide] are 360 nM and 783 nM.
For `CCC(=O)NCc1cc2cc(Cl)c(OCc3cccc(F)n3)cc2[nH]1` [Compound 494, N-((5-chloro-6-((6-fluoropyridin-2-yl)methoxy)-1H-indol-2-yl)methyl)propionamide], in that order: 148 nM and 35.7 nM.
For `CC1(C(=O)NCc2cc3ccc(OCc4cnsc4)cc3[nH]2)CC1` [Compound 68, N-((6-(isothiazol-4-ylmethoxy)-1H-indol-2-yl)methyl)-1-methylcyclopropane-1-carboxamide], the IC50 on human SLC6A19 and TMEM27 [1] stood at 119 nM; at human SLC6A19 and TMEM27 [2], 117 nM.
Consider `CCC(=O)NCc1cc2cc(F)c(OCc3coc(C)n3)cc2[nH]1` [Compound 550, N-((5-fluoro-6-((2-methyloxazol-4-yl)methoxy)-1H-indol-2-yl)methyl)propionamide], for which the half-maximal inhibitory concentration (IC50) on human SLC6A19 and TMEM27 [1] stood at 552 nM; at human SLC6A19 and TMEM27 [2], 1040 nM.
Consider `O=C(NCc1cc2cc(Cl)c(OCc3cscn3)cc2[nH]1)C1(F)CC1` [Compound 231, N-((5-chloro-6-(thiazol-4-ylmethoxy)-1H-indol-2-yl)methyl)-1-fluorocyclopropane-1-carboxamide], for which the IC50 is 139 nM at human SLC6A19 and TMEM27 [1]; 49.3 nM at human SLC6A19 and TMEM27 [2].

One may read the IC50 as the concentration that gives 50% inhibition.
